Here are results for two compounds from US9604984B2, “5-chloro-2-difluoromethoxyphenyl pyrazolopyrimidine compounds, compositions and methods of use thereof” (Genentech, Inc., priority 2014, dated 2017).

A short description of data set [1]: Clearance assay: mouse intravenous (IV) clearance. The data set is classed as in vivo. Particulars: female BALB/c mice, single IV dose of 1 mg/kg. The text has this:
In certain instances high systemic clearance of a drug substance may be of benefit. For example, in the treatment of pulmonary diseases it may be beneficial to have high drug concentrations in the lung, with lower concentrations in the bloodstream or peripheral organs. In such cases, it may be advantageous to administer a drug substance with high systemic clearance via the inhaled delivery route. This approach may maximize pharmacologic activity of the drug substance in the lung while minimizing the possibility of on-target toxicity elsewhere in the body. The functional groups appended to the 5-chloro-2-difluoromethoxyphenyl pyrazolopyrimidine scaffold affect systemic clearance.
Female BALB/c mice were obtained from Charles River Labs (Hollister, Calif. USA). Twelve animals were given a single IV dose of 1 mg/kg of compounds via the tail vein. A representative dose solution was prepared as follows: the compound was dissolved in a mixture of 5% dimethylsulfoxide (DMSO), 35% polyethylene glycol (PEG 400), and 60% water (v/v/v), respectively, and administered at a dosing volume of 5 mL/kg. Mice weighed approximately 20-25 g at the start of the study. […] PK data analysis was performed on mean plasma concentration-time data and PK parameters were determined by non compartmental methods using WinNonlin® Enterprise, version 5.2.1 (Pharsight Corporation; Mountain View, Calif.).

In data set [2] the target is isolated recombinant JAK1 kinase domain (Homo sapiens (Human), UniProt P23458). The data set is described as follows: JAK1 enzyme assay (Caliper LabChip, peptide phosphorylation). The data set is classed as biochemical. Particulars: 25 μM ATP. On the procedure:
(§1) JAK Enzyme Assays were carried out as follows:
(§2) The activity of the isolated recombinant JAK1 and JAK2 kinase domain was measured by monitoring phosphorylation of a peptide derived from JAK3 ([…] fluorescently labeled on the N-terminus with 5-carboxyfluorescein) using the Caliper LabChip® technology (Caliper Life Sciences, Hopkinton, Mass.). […] Reactions were incubated at 22° C. in 384-well polypropylene microtiter plates for 30 minutes and then stopped by addition of 25 μL of an EDTA containing solution (100 mM HEPES buffer (pH 7.2), 0.015% Brij-35, 150 mM EDTA), resulting in a final EDTA concentration of 50 mM. After termination of the kinase reaction, the proportion of phosphorylated product was determined as a fraction of total peptide substrate using the Caliper LabChip® 3000 according to the manufacturer's specifications.

The target in data set [3] is isolated recombinant JAK2 kinase domain (Homo sapiens (Human), UniProt O60674). The data set is described as follows: JAK2 enzyme assay (Caliper LabChip, peptide phosphorylation). The data set is classed as biochemical. Particulars: 25 μM ATP. As for the experimental part:
as §1, §2

As usually defined, the Ki is a dissociation constant, usually derived from enzyme kinetics or from competition with a known ligand.

isolated recombinant JAK2 kinase domain, sequence (O60674 849-1124): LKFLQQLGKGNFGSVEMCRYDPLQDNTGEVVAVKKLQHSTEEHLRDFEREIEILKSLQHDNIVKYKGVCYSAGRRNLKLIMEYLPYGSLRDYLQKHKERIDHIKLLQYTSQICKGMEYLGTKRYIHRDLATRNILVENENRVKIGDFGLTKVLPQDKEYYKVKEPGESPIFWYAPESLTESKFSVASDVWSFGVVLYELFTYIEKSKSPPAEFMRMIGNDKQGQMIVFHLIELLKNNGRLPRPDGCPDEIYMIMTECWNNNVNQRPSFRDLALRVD
isolated recombinant JAK1 kinase domain, sequence (P23458 875-1153): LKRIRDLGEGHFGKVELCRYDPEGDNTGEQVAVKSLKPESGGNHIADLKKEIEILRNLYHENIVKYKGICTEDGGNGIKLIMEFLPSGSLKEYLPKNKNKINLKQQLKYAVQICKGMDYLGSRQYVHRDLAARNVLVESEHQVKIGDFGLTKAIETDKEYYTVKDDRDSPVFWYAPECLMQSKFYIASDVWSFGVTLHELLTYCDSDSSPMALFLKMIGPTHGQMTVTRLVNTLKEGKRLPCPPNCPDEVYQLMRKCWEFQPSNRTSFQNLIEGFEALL

In the case of `CC(C)(O)Cn1cc(NC(=O)c2cnn3cccnc23)c(-c2cc(Cl)ccc2OC(F)F)n1` [compound i], the “mouse IV clearance as % of mouse liver blood flow” value in data set [1] is 6 % of mouse liver blood flow.

For `CNC(=O)[C@@H]1CCCN1CC1CCN(C(=O)Cn2cc(NC(=O)c3cnn4cccnc34)c(-c3cc(Cl)ccc3OC(F)F)n2)CC1` [Example 425, N-(3-(5-chloro-2-(difluoromethoxy)phenyl)-1-(2-(4-(((S)-2-(methylcarbamoyl)pyrrolidin-1-yl)methyl)piperidin-1-yl)-2-oxoethyl)-1H-pyrazol-4-yl)pyrazolo[1,5-a]pyrimidine-3-carboxamide], the figures for the Ki in data set [2] and in data set [3] were 0.6 nM and 1.64 nM, respectively.
